2 compounds from article PMC6098685 (Journal of the American Chemical Society, 2018) can be followed below.

The target of assay [1] is T1, β-Glucocerebrosidase (GCase) (Homo sapiens, UniProt P04062).
T1 sequence (P04062 40-536): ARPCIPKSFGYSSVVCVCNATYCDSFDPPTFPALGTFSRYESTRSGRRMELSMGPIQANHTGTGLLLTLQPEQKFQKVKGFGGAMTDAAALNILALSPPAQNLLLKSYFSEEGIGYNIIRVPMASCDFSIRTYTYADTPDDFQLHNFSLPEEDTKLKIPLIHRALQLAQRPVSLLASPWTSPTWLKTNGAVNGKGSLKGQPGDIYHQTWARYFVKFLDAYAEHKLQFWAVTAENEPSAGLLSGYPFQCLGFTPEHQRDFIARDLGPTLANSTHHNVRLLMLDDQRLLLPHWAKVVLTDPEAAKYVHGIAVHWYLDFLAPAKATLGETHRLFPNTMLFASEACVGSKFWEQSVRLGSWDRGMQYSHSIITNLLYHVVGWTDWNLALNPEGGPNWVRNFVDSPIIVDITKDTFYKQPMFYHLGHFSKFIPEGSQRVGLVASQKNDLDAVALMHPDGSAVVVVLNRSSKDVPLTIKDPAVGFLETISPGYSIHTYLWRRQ
Put plainly: 4MU-β-Glc fluorescence enzyme assay. Type of assay: biochemical.

The target of assay [2] is T1, β-Glucocerebrosidase (GCase). Put plainly: X-ray crystal structure. Type of assay: biochemical.

`c1cncc(-c2nc(NC3Cc4ccccc4C3)c3ccccc3n2)c1` [compound 3, JZ-4109]: in assay [1], half-maximal inhibition (IC50) required 8 nM.
As for `O=C(CCCCCCCCC#Cc1ccc2c(c1)CC(Nc1nc(-c3cccnc3)nc3ccccc13)C2)ON1C(=O)CCC1=O` (centres unmarked) [compound 4, JZ-5029], the IC50 (as a rule, the point on the concentration scale where inhibition reaches its midpoint) in assay [2] stood at 56 nM.
